Test results: US11517617B2, “Methods and compositions for preventing influenza infection” (THE UNIVERSITY OF MELBOURNE, priority 2017, dated 2022)

System: memory CD8^+ T cells within PBMCs
Format: cell-based, human

| Sequence | cross-reactivity of CD8^+ T cells after in vitro expansion with the peptide | recognition of IBV-derived variant by IAV-expanded CD8^+ T cells |
| --- | --- | --- |
| YEDLRVLSA (Influenza B virus) [BNP394-401] | could not expand CD8^+ T cells | to a lesser extent |
| FEDLRVLSA (Influenza A virus) [NP338-345] | recognizing both IAV- and IBV-derived peptides |  |
